The values that follow come from ChEMBL document CHEMBL5104113, “Biophysical Survey of Small-Molecule β-Catenin Inhibitors: A Cautionary Tale” (J Med Chem, 2022).

A short description of test [1]: Inhibition of Wnt/beta-catenin (unknown origin) transcriptional activity pathway transfected human H1299 cells by measuring luciferase activity after 24 hrs by TOP-flash luciferase reporter gene assay. The class given is cell-based. The conditions noted are these: nci-h1299.
The target of test [2] is T1, Catenin beta-1 (Homo sapiens) (UniProt P35222).
T1 sequence (whole entry): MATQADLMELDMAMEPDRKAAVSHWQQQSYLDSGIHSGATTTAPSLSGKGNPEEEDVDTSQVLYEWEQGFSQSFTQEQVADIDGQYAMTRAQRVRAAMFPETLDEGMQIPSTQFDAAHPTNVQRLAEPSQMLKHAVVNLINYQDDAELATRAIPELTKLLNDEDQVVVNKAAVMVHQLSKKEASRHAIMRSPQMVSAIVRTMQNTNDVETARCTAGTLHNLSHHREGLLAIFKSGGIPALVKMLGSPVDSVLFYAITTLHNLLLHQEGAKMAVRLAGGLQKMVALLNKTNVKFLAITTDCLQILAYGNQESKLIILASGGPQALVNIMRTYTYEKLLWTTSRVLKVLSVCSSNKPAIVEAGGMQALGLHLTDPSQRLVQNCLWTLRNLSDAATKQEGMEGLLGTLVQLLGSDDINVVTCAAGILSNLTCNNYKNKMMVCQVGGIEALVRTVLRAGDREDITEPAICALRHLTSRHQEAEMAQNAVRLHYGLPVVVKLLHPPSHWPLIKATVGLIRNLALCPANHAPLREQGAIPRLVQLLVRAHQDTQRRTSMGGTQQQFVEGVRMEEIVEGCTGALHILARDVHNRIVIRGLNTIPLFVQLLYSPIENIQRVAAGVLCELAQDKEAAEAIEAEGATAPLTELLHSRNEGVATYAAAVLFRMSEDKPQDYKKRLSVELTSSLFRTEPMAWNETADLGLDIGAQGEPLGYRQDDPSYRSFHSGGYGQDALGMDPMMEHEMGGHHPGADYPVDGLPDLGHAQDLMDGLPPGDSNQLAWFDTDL
The conditions noted are these: dose 125.0 µM.
Description: Thermal stabilization of wildtype beta catenin ARD (148 to 662 residues) (unknown origin) assessed as change in melting temperature at 125 uM by DSF method

A short description of test [3]: Downregulation of c-Myc protein expression level in human PANC-1 cells. The class given is functional, cell-based.
Test [4] in a line: Downregulation of c-Myc protein expression level in human ASPC1 cells. The class given is functional, cell-based.
The target in test [5] is Poly(ADP-ribose) glycohydrolase (Homo sapiens, UniProt Q86W56). The experiment in a line: Binding affinity to human PARG assessed as dissociation constant by SPR analysis.
Chain of Poly(ADP-ribose) glycohydrolase (Q86W56 whole entry): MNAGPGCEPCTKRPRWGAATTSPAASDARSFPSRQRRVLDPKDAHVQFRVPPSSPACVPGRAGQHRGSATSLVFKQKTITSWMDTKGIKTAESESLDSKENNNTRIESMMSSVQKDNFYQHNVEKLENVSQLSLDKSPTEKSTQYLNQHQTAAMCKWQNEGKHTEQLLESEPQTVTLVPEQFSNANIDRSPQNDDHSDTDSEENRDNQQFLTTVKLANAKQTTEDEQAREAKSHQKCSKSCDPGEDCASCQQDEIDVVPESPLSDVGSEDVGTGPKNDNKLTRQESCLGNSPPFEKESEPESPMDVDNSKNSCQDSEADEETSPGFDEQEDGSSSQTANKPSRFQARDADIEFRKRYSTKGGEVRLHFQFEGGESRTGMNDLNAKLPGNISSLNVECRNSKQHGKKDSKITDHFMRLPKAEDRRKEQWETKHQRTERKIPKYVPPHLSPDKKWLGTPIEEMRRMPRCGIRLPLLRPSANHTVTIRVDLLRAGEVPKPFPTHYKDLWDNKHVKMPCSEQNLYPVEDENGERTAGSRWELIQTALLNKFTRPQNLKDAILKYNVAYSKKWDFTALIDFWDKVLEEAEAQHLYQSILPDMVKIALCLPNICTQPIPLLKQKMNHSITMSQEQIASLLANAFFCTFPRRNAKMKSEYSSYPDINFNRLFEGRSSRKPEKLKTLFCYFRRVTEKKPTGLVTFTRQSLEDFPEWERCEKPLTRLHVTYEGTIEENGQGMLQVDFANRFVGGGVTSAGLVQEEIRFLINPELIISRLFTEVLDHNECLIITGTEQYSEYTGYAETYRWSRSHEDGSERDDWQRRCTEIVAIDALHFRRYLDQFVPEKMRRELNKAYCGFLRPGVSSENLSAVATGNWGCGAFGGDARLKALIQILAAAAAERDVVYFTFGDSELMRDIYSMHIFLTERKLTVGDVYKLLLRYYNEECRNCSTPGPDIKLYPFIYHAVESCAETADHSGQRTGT
Test [6] has as its system HCT-116. The experiment in a line: Cytotoxicity against human HCT-116 cells assessed as cell viability incubated for 72 hrs by cell titre glo assay. It is filed as functional, cell-based. Conditions: HCT-116, 72 h.
In test [7] the test system is SW480. The experiment in a line: Cytotoxicity against human SW480 cells assessed as cell viability incubated for 72 hrs by cell titre glo assay. The class given is functional, cell-based. The conditions noted are these: SW480, 72 h.
A further test deals with SW-620. Description: Cytotoxicity against human SW-620 cells assessed as cell viability incubated for 72 hrs by cell titre glo assay. The conditions noted are these: SW-620, 72 h. It is filed as functional, cell-based.
Test [8] concerns the target T2, beta-catenin-B-cell lymphoma 9 protein complex (Homo sapiens, UniProt P35222).
T2 sequence (P35222 whole entry): T1 sequence (whole entry)
T2 sequence (O00512 whole entry): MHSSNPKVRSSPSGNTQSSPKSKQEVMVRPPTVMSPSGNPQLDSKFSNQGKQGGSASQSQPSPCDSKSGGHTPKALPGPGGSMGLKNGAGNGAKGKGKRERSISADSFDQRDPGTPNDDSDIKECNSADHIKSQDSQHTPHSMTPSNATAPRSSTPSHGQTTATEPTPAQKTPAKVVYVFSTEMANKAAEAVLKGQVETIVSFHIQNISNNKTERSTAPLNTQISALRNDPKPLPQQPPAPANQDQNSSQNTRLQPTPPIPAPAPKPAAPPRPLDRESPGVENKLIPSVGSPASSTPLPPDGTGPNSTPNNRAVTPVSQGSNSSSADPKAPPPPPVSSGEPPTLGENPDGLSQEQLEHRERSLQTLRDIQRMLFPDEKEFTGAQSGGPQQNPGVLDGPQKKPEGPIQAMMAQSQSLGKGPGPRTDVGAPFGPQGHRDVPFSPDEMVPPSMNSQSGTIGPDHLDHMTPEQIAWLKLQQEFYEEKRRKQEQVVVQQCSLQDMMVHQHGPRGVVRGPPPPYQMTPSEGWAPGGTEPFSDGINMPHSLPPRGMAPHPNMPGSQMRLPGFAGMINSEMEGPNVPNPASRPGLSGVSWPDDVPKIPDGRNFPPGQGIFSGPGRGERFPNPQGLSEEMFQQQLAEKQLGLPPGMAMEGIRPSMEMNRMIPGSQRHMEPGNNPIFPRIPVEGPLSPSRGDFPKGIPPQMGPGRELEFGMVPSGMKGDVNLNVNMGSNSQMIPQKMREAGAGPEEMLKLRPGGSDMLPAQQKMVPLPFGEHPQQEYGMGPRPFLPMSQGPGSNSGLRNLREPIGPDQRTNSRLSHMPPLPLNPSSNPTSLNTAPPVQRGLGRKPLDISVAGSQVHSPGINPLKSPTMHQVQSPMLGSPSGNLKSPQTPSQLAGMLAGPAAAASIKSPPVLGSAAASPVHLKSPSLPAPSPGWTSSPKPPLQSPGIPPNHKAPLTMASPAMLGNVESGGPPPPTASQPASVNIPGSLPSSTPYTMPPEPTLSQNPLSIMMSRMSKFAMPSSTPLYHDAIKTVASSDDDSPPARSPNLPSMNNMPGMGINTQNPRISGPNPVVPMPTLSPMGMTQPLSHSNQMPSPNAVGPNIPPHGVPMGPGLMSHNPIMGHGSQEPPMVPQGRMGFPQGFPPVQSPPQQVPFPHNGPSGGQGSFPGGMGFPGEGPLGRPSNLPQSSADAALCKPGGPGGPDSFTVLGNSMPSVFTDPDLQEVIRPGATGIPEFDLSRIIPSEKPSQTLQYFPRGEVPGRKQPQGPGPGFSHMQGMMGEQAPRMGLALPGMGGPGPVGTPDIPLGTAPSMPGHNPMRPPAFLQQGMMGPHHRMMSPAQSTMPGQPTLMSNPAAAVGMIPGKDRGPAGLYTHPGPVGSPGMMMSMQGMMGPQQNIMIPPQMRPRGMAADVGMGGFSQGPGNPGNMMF
The experiment in a line: Binding affinity to N-terminal FLAG tagged beta catenin (134 to 671 residues)/FLAG tagged BCL9 domain 2 (343 to 396 residues) (unknown origin) protein protein interaction assessed as inhibition constant. The class given is protein-complex assay.

Test [9] addresses T3, Catenin beta-1 (Homo sapiens, UniProt P35222).
T3 sequence (P35222 whole entry): T1 sequence (whole entry)
Description: Binding affinity to N-terminal FLAG tagged beta catenin alpha helix (H1 - 141 to 149 aa) of armadillo repeat domain (unknown origin) by STD/HSQC based NMR analysis.

The target in test [10] is T3, Catenin beta-1.
Description: Binding affinity to beta catenin ARD (142 to 686 residues) (unknown origin) assessed as inhibition constant by fluorescence polarisation assay
Test [11] has as its target T1, Catenin beta-1 (Homo sapiens).
Description: Binding affinity to beta catenin ARD (142 to 686 residues) (unknown origin) assessed as change in entropy by VP-ITC method
The test system of test [12] is HCT-116. Description: Inhibition of cell growth in human HCT-116 cells incubated for 24 hrs by WST-1 assay. The class given is functional.
For test [13], the system named is SW480. Description: Inhibition of cell growth in human SW480 cells incubated for 24 hrs by WST-1 assay. It is filed as functional.
The test system of a further test is A549. The experiment in a line: Antiproliferative activity against human A549 cells expressing wnt2 incubated for 72 hrs by celltitre 96 non-radioactive cell proliferation assay kit. The conditions noted are these: A549, 72 h. It is filed as functional, cell-based.
The next test has as its target T4, TCF4-CTNNB1 complex (Homo sapiens, UniProt P35222+Q9NQB0).
T4 sequence (P35222 whole entry): T1 sequence (whole entry)
T4 sequence (P15884 whole entry): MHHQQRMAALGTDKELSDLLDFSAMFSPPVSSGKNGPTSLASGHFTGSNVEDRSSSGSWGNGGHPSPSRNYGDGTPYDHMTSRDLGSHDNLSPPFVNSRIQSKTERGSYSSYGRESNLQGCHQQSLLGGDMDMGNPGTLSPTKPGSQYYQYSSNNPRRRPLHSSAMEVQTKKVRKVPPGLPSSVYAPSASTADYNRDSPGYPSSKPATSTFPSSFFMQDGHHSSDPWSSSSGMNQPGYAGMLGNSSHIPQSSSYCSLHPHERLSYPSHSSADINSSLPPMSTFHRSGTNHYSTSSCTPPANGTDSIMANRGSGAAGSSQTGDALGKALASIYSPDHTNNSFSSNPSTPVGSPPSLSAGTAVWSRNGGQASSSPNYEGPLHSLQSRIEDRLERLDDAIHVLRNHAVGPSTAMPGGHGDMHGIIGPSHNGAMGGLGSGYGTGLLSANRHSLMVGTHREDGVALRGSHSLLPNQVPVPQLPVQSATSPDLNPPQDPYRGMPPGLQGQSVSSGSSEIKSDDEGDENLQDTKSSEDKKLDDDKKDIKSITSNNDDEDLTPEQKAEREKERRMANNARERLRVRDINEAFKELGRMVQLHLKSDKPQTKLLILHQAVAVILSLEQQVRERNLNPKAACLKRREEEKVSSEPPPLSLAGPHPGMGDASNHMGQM
The experiment in a line: Inhibition of beta catenin/recombinant GST tagged Tcf4 protein protein interaction in human HCT-116 cells. The class given is cell-based.

The target of test [14] is T3, Catenin beta-1. Description: Inhibition of beta catenin in HEK293 cells by TOPflash luciferase reporter assay. It is filed as cell-based.
The nature of test [15]: Inhibition of Tcf in HEK293 cells by TOPflash luciferase reporter assay. The class given is cell-based. Conditions: Homo sapiens.

The structures appear in SMILES notation.

`O=C1C(Cl)=C(Nc2ccc(S(=O)(=O)Nc3ccccn3)cc2)C(=O)c2ccccc21`: in test [1], the half-maximal inhibitory concentration (IC50) amounted to 2.3 µM.
In the case of `COc1cccc(/C=C2/SC(=S)N(CCC(=O)O)C2=O)c1OC`, the thermal shift (ΔTm) in [2] was -0.5 °C.
As for `CN(C)CCOc1nc2ccccc2nc1C#Cc1ccccc1`, the ΔTm in test [2] is 0 °C.
For `CCc1ccc(-c2nc(CSCC(=O)NCCc3ccccc3)c(C)o2)cc1`, the ΔTm in [2] is -0.7 °C.
On the same count and under the same terms, next, `Cc1ccc2nc(N(C)C)nc(NCc3ccc(C(=O)NCc4ccc(F)cc4)cc3)c2c1`: -0.7 °C.
As to `COc1ccc2[nH]c3c(-c4cccc5ccccc45)nccc3c2c1`, the IC50 in test [3] and in test [4] was under 0.5 µM in each case. Further, the shift in melting temperature (ΔTm) in test [2] was -0.9 °C.
As for `O=C(O)c1ccccc1Oc1ccccc1`, the shift in melting temperature (ΔTm) in test [2] is -0.1 °C.
The same measure, in the same setting: the value for `CN(C)c1ccc(-c2nc3cc(F)ccc3[nH]2)cc1` was -0.1 °C; that for `O=C(Nc1ccc(O[C@H]2CCNC2)c(-c2ccc(F)cc2)c1)c1ccc(O[C@@H]2CCNC2)c(-c2ccc(F)c(F)c2)c1` was -0.5 °C.
`CC(C)(C)NS(=O)(=O)c1ccc2c(c1)C(=O)c1ccccc1C2=O`: the equilibrium dissociation constant (Kd) in [5] came to 0.00145 µM.
As to `c1ccc(CCNc2nc(N3CCCCC3)nc3ccccc23)cc1`, the concentration for half-maximal inhibition (IC50) turned out to be 6.2 µM in the test with HCT-116 [6], 5.9 µM in the test with SW480 [7] and 6.7 µM in the test with SW-620. Also, the ΔTm in test [2] was -0.6 °C.
As to `Cc1cc(Cl)ccc1/N=C\c1ccc(F)c(Oc2ccccc2)c1`, the thermal shift (ΔTm) in test [2] worked out at 0.1 °C.
Consider `O=C(O)c1ccccc1-c1c2ccc(=O)cc-2oc2cc(O)ccc12`, for which the shift in melting temperature (ΔTm) in test [2] was determined as 0.1 °C.
With `Cc1ccc(S(=O)(=O)Nc2cccc(C(=O)O)c2)cc1`, in [2], the ΔTm was -0.5 °C.
Turning to `CC(C)c1cc2c(c(O)c1O)[C@@]1(C(=O)O)CCCC(C)(C)[C@@H]1CC2` [CARNOSIC ACID], the Ki in [8] turned out to be 3 µM. For the same compound, on Catenin beta-1 [9], binding was characterised by a dissociation constant (Kd) of 20 µM. Besides, the ΔTm in test [2] was -2.7 °C.
Consider `On1ncc2cc(CCc3nn[nH]n3)ccc21`, for which affinity at Catenin beta-1 [10] was put at a Ki of 3 µM. This compound also came in with a -TdeltaS in test [11] of -7.89 kcal/mol.
With `O=C(CN1C2=NCCN2c2ccccc21)c1ccc(-c2ccccc2)cc1`, the 50% growth inhibitory concentration (GI50) in the test on HCT-116 [12] is 13.9 µM; with SW480 [13] it was 13.2 µM. Also, in test [2], the ΔTm is -0.1 °C.
As to `Fc1ccc2nc(OCCN3CCCC3)c(C#Cc3ccccc3)nc2c1`, in the test with A549, the IC50 was determined as 10 µM. In [2], the ΔTm was 0.1 °C.
Regarding `COc1c(C[C@H](C)OC(=O)c2c(C)cc(O)cc2O)c2c3c(C[C@H](C)OC(=O)c4c(C)cc(O)cc4O)c(OC)c(=O)c4c(O)cc(OC)c(c5c(OC)cc(O)c(c1=O)c52)c43`, at TCF4-CTNNB1 complex, the IC50 is 10 µM.
On to `COC(=O)c1cccc(NS(=O)(=O)c2ccc(C)cc2)c1`, for which, in [2], the ΔTm is -0.5 °C.
Regarding `CCc1cccc2c3c([nH]c12)[C@@](CC)(CC(=O)O)OCC3` [SDX-101], the half-maximal inhibitory concentration (IC50) at Catenin beta-1 [14] turned out to be 683 µM; in [15], 46 µM. Also, in [2], the shift in melting temperature (ΔTm) was -0.5 °C.
Regarding `Cn1ncnc2c(=O)n(C)c(=O)nc1-2`, in test [2], the thermal shift (ΔTm) was -0.5 °C.
Turning to `Cc1ccc(/C=N/NC(=O)c2ccccc2Oc2ccccc2)o1`, the thermal shift (ΔTm) in test [2] is -0.5 °C.
Turning to `COc1c(C[C@H](C)OC(=O)Oc2ccc(O)cc2)c2c3c(C[C@H](C)OC(=O)c4ccccc4)c(OC)c(=O)c4c(O)cc(OC)c(c5c(OC)cc(O)c(c1=O)c52)c43`, the IC50 on TCF4-CTNNB1 complex turned out to be 10 µM.
